Drawing on patent publication US20040253139A1, “Environmental surface disinfectant” (priority 2003, published 2004), this text covers Bacterial growth for one compound.

The test system of the experiment is E. coli (ATCC 25922). As to the kind of experiment: Lower effective concentration of ethyl lactate, modification of AOAC Method 956.17. The format is cell-based. The note with it: 15% solution of ethyl lactate, exposure 10 minutes. As to the method:
Using a modification of AOAC Method 956.17, the lower effective concentration for ethyl lactate was tested against E. coli (ATCC 25922) at three reaction times at varying concentrations of ethyl lactate.

On to `CCOC(=O)C(C)O` (stereo not shown) [ethyl lactate], for which the Bacterial growth entry was “eliminated bacterial growth”.
